We go through 33 molecules from patent publication US8513232B2, “Substituted spirocyclic piperidine derivatives as histamine-3 (H3) receptor ligands” (Cephalon, Inc., priority 2008, dated 2013).

For data set [1], the target named is T1, rat histamine H3 receptor (Rattus norvegicus, UniProt Q9QYN8).
T1 construct: encoding the entire 445-amino-acid rat histamine H3 receptor; expressed in transfected cells; membrane preparation
Briefly: Rat H3 radioligand binding ([3H]-N-alpha-methylhistamine, SPA). The method, boiled down:
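SPA-bead binding assay using [3H]-N-alpha-methylhistamine (approximately 1 nM final) with test compounds from 0.01 nM to 30 μM. Rat H3 receptor membranes came from stably transfected CHO-A3 cells; incubation ran 4 h at room temperature, in the dark, in Tris pH 7.4 buffer with MgCl2 and BSA. Clobenpropit (10 μM) gave non-specific binding.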

A further data set has as its target T2, human H3 receptor (Homo sapiens, UniProt Q9Y5N1).
T2 construct: expressed in transfected cells
Briefly: Human H3 radioligand binding ([3H]-N-alpha-methylhistamine, SPA). An outline of the steps:
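Compounds (0.01 nM-30 μM) competed with approximately 1 nM [3H]-N-alpha-methylhistamine for human H3 receptor in membranes of stably transfected CHO cells, 10 μg protein per well, in Tris-HCl pH 7.4/MgCl2/BSA buffer for 4 h at room temperature. Bound radioligand measured by scintillation proximity; 10 μM clobenpropit gave non-specific binding.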

The mark [2] stands for this setting: Human H3 binding, Table B, Examples 136-362, read-out: hum H3 binding Ki.
Setting [3] is: Rat H3 binding, Table B, Examples 136-362, read-out: rat H3 binding Ki.
The mark [4] stands for this setting: Table C, rat H3 binding, read-out: Rat H3 Ki.
Setting [5] is: Table C, human H3 binding, read-out: Human H3 Ki.
Setting [6] is: rat H3 binding, Table D, read-out: Rat H3 Ki.
Where [7] appears, read: human H3 binding, Table D, read-out: Human H3 Ki.
Setting [8] is: Table A, rat H3 binding, read-out: Rat Ki.
Setting [9] is: Table A, human H3 binding, read-out: Human Ki.

Where two headings read alike, the source gives them in different places.

T2 sequence (Q9Y5N1 whole entry): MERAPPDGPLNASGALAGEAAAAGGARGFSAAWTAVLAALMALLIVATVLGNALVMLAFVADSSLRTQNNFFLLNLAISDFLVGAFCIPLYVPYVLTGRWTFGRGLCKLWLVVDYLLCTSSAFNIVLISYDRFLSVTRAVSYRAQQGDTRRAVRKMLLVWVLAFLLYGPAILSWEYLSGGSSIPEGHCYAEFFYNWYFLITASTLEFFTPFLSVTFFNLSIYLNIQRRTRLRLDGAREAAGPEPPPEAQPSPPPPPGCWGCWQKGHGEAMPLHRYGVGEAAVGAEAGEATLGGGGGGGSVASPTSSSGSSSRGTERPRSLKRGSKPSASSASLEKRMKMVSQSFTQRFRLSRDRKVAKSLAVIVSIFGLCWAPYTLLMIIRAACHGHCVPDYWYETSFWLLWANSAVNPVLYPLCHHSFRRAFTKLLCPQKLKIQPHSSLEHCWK
T1 sequence (Q9QYN8 whole entry): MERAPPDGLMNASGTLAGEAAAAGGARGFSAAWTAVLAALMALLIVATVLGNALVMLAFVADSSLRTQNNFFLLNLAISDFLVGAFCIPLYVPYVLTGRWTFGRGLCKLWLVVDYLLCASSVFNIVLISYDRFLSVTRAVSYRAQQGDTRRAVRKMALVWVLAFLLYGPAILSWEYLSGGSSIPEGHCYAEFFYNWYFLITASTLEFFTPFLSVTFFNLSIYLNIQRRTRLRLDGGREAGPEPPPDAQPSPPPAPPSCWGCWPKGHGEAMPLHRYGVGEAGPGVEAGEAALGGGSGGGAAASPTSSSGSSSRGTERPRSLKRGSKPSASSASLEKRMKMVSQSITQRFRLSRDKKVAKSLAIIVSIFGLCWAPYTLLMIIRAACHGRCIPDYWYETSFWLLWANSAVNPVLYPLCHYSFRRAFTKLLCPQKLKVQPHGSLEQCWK

In turn, `CN1CCN(c2ccc3c(c2)OC2(CCN(C4CCC4)CC2)O3)C1=O` [Example 151] showed a melting point of 186 to 187 °C. The Ki in data set [1] (Rat H3 binding, Table B, given as numeric bound instead of class symbol, read-out: rat H3 binding Ki) was over 300 nM. Further, the Ki at human H3 receptor (setting [2]) is under 200 nM.

Turning to `O=C(Nc1ccc2c(c1)COC1(CCN(C3CCC3)CC1)O2)N1CCOCC1` [Example 165], the melting point was 238 to 240 °C. Besides, in data set [1] (setting [3]), the Ki fell in the range of 200 to 1000 nM. Further, at human H3 receptor (setting [2]), the Ki was under 200 nM.

With `c1ccc(CN2CCN(c3ccc4c(c3)CCC3(CCN(C5CCC5)CC3)O4)CC2)cc1` [Example 365], the melting point lay in the range of 292 to 293 °C. In addition, in data set [1] (setting [4]), the Ki is under 200 nM. In addition, the Ki at human H3 receptor (setting [5]) is under 200 nM.

Molecule `OC(c1ccc(Cl)nc1)c1ccc2c(c1)COC1(CCN(C3CCC3)CC1)O2` (stereo not drawn) [Example 508] had a melting point of 79 to 81 °C. Further, the Ki in data set [1] (read-out: Rat H3 kI) is under 200 nM. Besides, the Ki at human H3 receptor (read-out: Human H3 Ki) is under 200 nM.

`c1cnc(Oc2ccc3c(c2)CCC2(CCN(C4CCC4)CC2)O3)nc1` [Example 400] registered a melting point of 258 to 260 °C. Moreover, in data set [1] (Table C, rat H3 binding, given as numeric bound, read-out: Rat H3 Ki), the Ki was over 300 nM. Also, at human H3 receptor (setting [5]), the Ki is 200 to 1000 nM.

As to `O=C1CCN(c2ccc3c(c2)CCC2(CCN(C4CCC4)CC2)O3)CC1` [Example 399], the melting point was > 247 °C (dec.). The Ki in data set [1] (setting [4]) was under 200 nM. Also, the Ki at human H3 receptor (setting [5]) was under 200 nM.

Consider `CCOC1CCN(c2ccc3c(c2)COC2(CCN(C4CCC4)CC2)O3)CC1` [Example 431], for which the melting point is 266 to 269 °C. Further, the Ki in data set [1] (setting [4]) was under 200 nM. Also, at human H3 receptor (setting [5]), the Ki was under 200 nM.

As for `O=S1(=O)CCC(O)(c2ccc3c(c2)COC2(CCN(C4CCC4)CC2)O3)CC1` [Example 517], the melting point fell in the range of 240 to 241 °C. The Ki in data set [1] (read-out: Rat H3 kI) was under 200 nM. In addition, the inhibition constant Ki at human H3 receptor (read-out: Human H3 Ki) is under 200 nM.

Molecule `O=C1CCCN1CCOc1ccc2c(c1)CCC1(CCN(C3CCC3)CC1)O2` [Example 458] gave a melting point of 170 to 172 °C. For the same molecule, the Ki in data set [1] (read-out: Rat H3 kI) was under 200 nM. At human H3 receptor (read-out: Human H3 Ki), the inhibitory constant (Ki) was under 200 nM.

`O=C(Nc1ccc2c(c1)COC1(CCN(C3CCC3)CC1)O2)c1ccncn1` [Example 297]: the melting point lay in the range of 198 to 199 °C. In addition, the Ki in data set [1] (setting [3]) was under 200 nM. For the same molecule, the Ki at human H3 receptor (setting [2]) is under 200 nM.

Regarding `COc1ccc(-c2cc3c(cc2C)OC2(CCN(C4CCC4)CC2)OC3)cn1` [Example 544], the melting point fell in the range of 96 to 98 °C. Also, the Ki in data set [1] (read-out: Rat H3 kI) is under 200 nM. Besides, the Ki on human H3 receptor (read-out: Human H3 Ki) is under 200 nM.

Regarding `[O-][S+]1CC=C(c2ccc3c(c2)COC2(CCN(C4CCC4)CC2)O3)CC1` (stereo not drawn) [Example 461], the melting point lay in the range of 155 to 158 °C. In addition, the Ki in data set [1] (read-out: Rat H3 kI) was under 200 nM. Also, on human H3 receptor (read-out: Human H3 Ki), the Ki was under 200 nM.

In turn, `O=C(NCCO)c1c(F)cc(-c2ccc3c(c2)COC2(CCN(C4CCC4)CC2)O3)cc1F` [Example 261] yielded a melting point of 78.6 to 80.4 °C. Besides, in data set [1] (setting [3]), the Ki was under 200 nM. Besides, the Ki on human H3 receptor (setting [2]) is under 200 nM.

Molecule `O=c1[nH]cc(-c2ccc3c(c2)COC2(CCN(C4CCC4)CC2)O3)c2ccccc12` [Example 777] showed a melting point of 202 to 204 °C. Also, in data set [1] (setting [6]), the Ki is under 200 nM. For the same molecule, the Ki on human H3 receptor (setting [7]) is under 200 nM.

`Cc1nc2cccc(Cl)c2c(=O)n1-c1ccc2c(c1)COC1(CCN(C3CCC3)CC1)O2` [Example 801]: the melting point lay in the range of 105 to 107 °C. The Ki in data set [1] (setting [6]) was under 200 nM. Moreover, the Ki on human H3 receptor (setting [7]) is under 200 nM.

Molecule `OCC1CCN(c2ccc3c(c2)COC2(CCN(C4CCC4)CC2)O3)CC1` [Example 601] showed a melting point of 88.9 to 91.4 °C. Also, in data set [1] (setting [6]), the Ki was under 200 nM. For the same molecule, at human H3 receptor (setting [7]), the Ki was under 200 nM.

In the case of `Cc1cccc(Oc2ccc3c(c2)CCC2(CCN(C4CCC4)CC2)O3)n1` [Example 268], the melting point lay within 213 to 215 °C. The inhibition constant (Ki) in data set [1] (setting [3]) is under 200 nM. Besides, the Ki on human H3 receptor (setting [2]) was under 200 nM.

Consider `COCCN(C)C(=O)c1c(F)cc(-c2ccc3c(c2)CCC2(CCN(C4CCC4)CC2)O3)cc1F` [Example 360], for which the melting point was in the range of 100 to 102 °C. Also, the inhibition constant Ki in data set [1] (setting [3]) is under 200 nM. At human H3 receptor (setting [2]), the Ki is under 200 nM.

As to `N#Cc1ccc(Oc2ccc3c(c2)CCC2(CCN(C4CCC4)CC2)O3)cc1` [Example 223], the melting point was 237 to 239 °C. Further, the inhibition constant (Ki) in data set [1] (setting [3]) is under 200 nM. The Ki on human H3 receptor (setting [2]) is under 200 nM.

For `CN1CCN(c2ccc3c(c2)CCC2(CCN(C4CCC4)CC2)O3)C1=O` [Example 121], the melting point was 228 to 230 °C. Further, the Ki in data set [1] (setting [8]) is under 200 nM. In addition, the Ki on human H3 receptor (setting [9]) is under 200 nM.

Consider `CCOC(=O)C1CCC(Oc2ccc3c(c2)CCC2(CCN(C4CCC4)CC2)O3)CC1` (stereo not drawn) [Example 456], for which the melting point lay within 236 to 238 °C. Also, the Ki in data set [1] (read-out: Rat H3 kI) is under 200 nM. For the same molecule, the Ki on human H3 receptor (read-out: Human H3 Ki) was under 200 nM.

The molecule `Cc1nc(C)c(C(=O)Nc2ccc3c(c2)COC2(CCN(C4CCC4)CC2)O3)s1` [Example 308] registered a melting point of 174 to 175 °C. Besides, the Ki in data set [1] (setting [3]) was under 200 nM. Besides, the Ki at human H3 receptor (setting [2]) was under 200 nM.

The molecule `CC(C)C(=O)NC1CCN(c2ccc3c(c2)CCC2(CCN(C4CCC4)CC2)O3)CC1` [Example 571] showed a melting point of 199.3 to 201.2 °C. Further, the Ki in data set [1] (setting [6]) is under 200 nM. Moreover, the Ki on human H3 receptor (setting [7]) is under 200 nM.

Turning to `CC(C)C(=O)N1CCC(Oc2ccc3c(c2)CCC2(CCN(C4CCC4)CC2)O3)CC1` [Example 427], the melting point fell in the range of 239 to 241 °C. In addition, the Ki in data set [1] (setting [4]) is under 200 nM. On human H3 receptor (setting [5]), the Ki was under 200 nM.

Molecule `OC1(c2ccc3c(c2)COC2(CCN(C4CCC4)CC2)O3)CCC1` [Example 501] registered a melting point of 64 to 66 °C. In addition, the Ki in data set [1] (read-out: Rat H3 kI) was under 200 nM. Besides, the Ki at human H3 receptor (read-out: Human H3 Ki) was under 200 nM.

As to `c1cc2c(cc1N1CCC1)CCC1(CCN(C3CCC3)CC1)O2` [Example 438], the melting point lay in the range of 118 to 120 °C. Besides, in data set [1] (setting [4]), the Ki is under 200 nM. The inhibitory constant (Ki) on human H3 receptor (setting [5]) is under 200 nM.

Molecule `Clc1ccc(COc2ccc3c(c2)CCC2(CCN(C4CCC4)CC2)O3)cc1` [Example 288] registered a melting point of 115 to 116 °C. In data set [1] (setting [3]), the Ki is under 200 nM. For the same molecule, the Ki on human H3 receptor (setting [2]) was under 200 nM.

As to `CNC(=O)c1cc(-c2ccc3c(c2)COC2(CCN(C4CCC4)CC2)O3)ccc1Cl` [Example 584], the melting point lay within 198 to 200 °C. Besides, in data set [1] (setting [6]), the Ki was under 200 nM. The Ki at human H3 receptor (setting [7]) is under 200 nM.

The molecule `CCC(=O)N1CCN(c2ccc3c(c2)COC2(CCN(C4CCC4)CC2)O3)C(=O)C1` [Example 739] displayed a melting point of 146 to 148 °C. In addition, in data set [1] (setting [6]), the Ki is under 200 nM. Besides, at human H3 receptor (setting [7]), the Ki was under 200 nM.

Regarding `OC(c1ccc2c(c1)COC1(CCN(C3CCC3)CC1)O2)C1CCSCC1` (stereo not drawn) [Example 496], the melting point was 85 to 90 °C. In addition, the Ki in data set [1] (read-out: Rat H3 kI) was under 200 nM. In addition, the Ki on human H3 receptor (read-out: Human H3 Ki) is under 200 nM.

As to `N#Cc1ccccc1Nc1ccc2c(c1)COC1(CCN(C3CCC3)CC1)O2` [Example 125], the melting point fell in the range of 54 to 58 °C. In data set [1] (setting [8]), the Ki was under 200 nM. The inhibition constant (Ki) on human H3 receptor (setting [9]) is under 200 nM.

Regarding `CNC(=O)c1ccc(-c2cc(F)c3c(c2)COC2(CCN(C4CCC4)CC2)O3)cc1F` [Example 142], the melting point fell in the range of 156 to 158 °C. In data set [1] (setting [3]), the Ki was under 200 nM. Also, the Ki at human H3 receptor (setting [2]) is under 200 nM.

On to `O=S1(=O)CCC(O)(c2ccc3c(c2)CCC2(CCN(C4CCC4)CC2)O3)CC1` [Example 535], for which the melting point fell in the range of 213 to 215 °C. In addition, the Ki in data set [1] (read-out: Rat H3 kI) is under 200 nM. In addition, at human H3 receptor (read-out: Human H3 Ki), the Ki is under 200 nM.
